From publication PMC6271944 (Molecules, 2014)

Columns and labels:
CYP1A2 = target: T1, CYP1A2 (Homo sapiens, UniProt P05177); assay: CYP inhibition in human liver microsomes, substrate cocktail, LC-MS/MS (phenacetin); assay type: in vitro ADME; conditions: metabolite acetaminophen, read-out: IC50 for HLM, CYP1A2
T1 construct: Pooled human liver microsomes (HLM, LOT 32556) were purchased from BD Gentest Corporation; tissue BD Gentest Corporation LOT 32556; host or cells: pooled human liver microsomes
T1 sequence (P05177 1-516): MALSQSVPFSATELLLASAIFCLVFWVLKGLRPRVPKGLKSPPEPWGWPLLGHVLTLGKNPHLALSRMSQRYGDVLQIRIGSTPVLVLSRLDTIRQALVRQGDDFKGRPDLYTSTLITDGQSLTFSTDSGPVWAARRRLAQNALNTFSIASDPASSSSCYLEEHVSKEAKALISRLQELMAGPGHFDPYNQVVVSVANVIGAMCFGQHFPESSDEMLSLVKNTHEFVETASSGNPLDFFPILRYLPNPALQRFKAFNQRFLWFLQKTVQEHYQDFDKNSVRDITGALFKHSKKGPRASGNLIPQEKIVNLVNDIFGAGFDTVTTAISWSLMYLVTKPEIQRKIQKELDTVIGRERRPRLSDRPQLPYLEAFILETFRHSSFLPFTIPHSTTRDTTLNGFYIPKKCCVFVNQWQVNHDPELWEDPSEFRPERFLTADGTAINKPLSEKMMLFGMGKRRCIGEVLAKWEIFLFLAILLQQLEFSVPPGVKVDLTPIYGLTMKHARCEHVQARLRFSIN
Excerpt: (§1) Positive controls (furafyline for CYP1A2, montelukast for CYP2C8, sulfaphenazole for CYP2C9, S-(+)-N-3-benzylnirvanol for CYP2C19, quinidine for CYP2D6, ketoconazole for CYP3A4) and specific substrates (phenacetin for CYP1A2, paclitaxel for CYP2C8, diclofenac for CYP2C9, S-mephenytoin for CYP2C19, dextromethorphan for CYP2D6, midazolam for CYP3A4) are consistent with our previous papers. The substrates were used at concentrations approximately equal to their respective Michaelis-Menten constant (Km) values: 10 μM phenacetin, 5 μM paclitaxel, 5 μM diclofenac, 200 μM S-mephenytoin, 5 μM dextromethorphan, and 2 μM midazolam. NADP^+ was added after a 15 min preincubation of all other components at 37 °C. After a given incubation time (30 min), the reactions were terminated by addition of 60 μL ice-cold acetonitrile containing gemfibrozil and buspirone as internal standards. Incubation samples were stored at −80 °C until used in liquid chromatography-tandem mass spectrometry (LC-MS/MS) analysis. The mixture was centrifuged at 3,500 rpm for 5 min. The supernatant was mixed with equal volume of a 1:1 mixture of methanol and water and 20 μL of the final mixture was used for LC-MS/ MS analysis. […]
(§2) The CYP inhibition potential were evaluated by measuring the formation of one or more metabolites of the test substrates. […]

CYP2C19 = target: T2, CYP2C19 (Homo sapiens, UniProt P33261); assay: CYP inhibition in human liver microsomes, substrate cocktail, LC-MS/MS (S-mephenytoin); assay type: in vitro ADME; conditions: metabolite 4-hydroxymephenytoin, 95% CI in brackets, read-out: IC50 for HLM, CYP2C19
T2 construct: Pooled human liver microsomes (HLM, LOT 32556) were purchased from BD Gentest Corporation; tissue BD Gentest Corporation LOT 32556; host or cells: pooled human liver microsomes
Excerpt: as §1, §2

CYP2D4 = target: T3, CYP2D4 (Rattus norvegicus, UniProt Q64680); assay: CYP inhibition in rat liver microsomes, substrate cocktail, LC-MS/MS (dextromethorphan); assay type: in vitro ADME; conditions: pH 7.4, probe dextromethorphan 5 μM, read-out: IC50 for RLM, CYP2D4 (table row CYP2D6)
T3 sequence (Q64680 1-500): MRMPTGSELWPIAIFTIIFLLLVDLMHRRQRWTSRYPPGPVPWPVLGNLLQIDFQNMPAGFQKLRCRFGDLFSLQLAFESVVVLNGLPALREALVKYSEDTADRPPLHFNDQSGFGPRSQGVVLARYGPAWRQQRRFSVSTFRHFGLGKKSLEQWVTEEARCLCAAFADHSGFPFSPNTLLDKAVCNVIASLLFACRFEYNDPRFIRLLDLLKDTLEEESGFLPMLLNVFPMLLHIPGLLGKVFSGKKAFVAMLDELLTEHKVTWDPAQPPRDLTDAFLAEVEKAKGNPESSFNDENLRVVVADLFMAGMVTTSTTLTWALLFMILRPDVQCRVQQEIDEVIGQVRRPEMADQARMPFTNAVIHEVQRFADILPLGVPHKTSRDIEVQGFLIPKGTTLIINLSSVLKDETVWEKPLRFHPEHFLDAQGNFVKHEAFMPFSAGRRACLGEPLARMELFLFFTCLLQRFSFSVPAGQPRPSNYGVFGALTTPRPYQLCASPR
Excerpt: as §1, §2

UGT1A9 = tested on: UGT1A9; parameters: dose or concentration left out as unconfirmed; conditions: cited from earlier work
UGT2B7 = tested on: UGT2B7; parameters: dose or concentration left out as unconfirmed; conditions: cited from earlier work

T2 sequence (P33261 whole entry): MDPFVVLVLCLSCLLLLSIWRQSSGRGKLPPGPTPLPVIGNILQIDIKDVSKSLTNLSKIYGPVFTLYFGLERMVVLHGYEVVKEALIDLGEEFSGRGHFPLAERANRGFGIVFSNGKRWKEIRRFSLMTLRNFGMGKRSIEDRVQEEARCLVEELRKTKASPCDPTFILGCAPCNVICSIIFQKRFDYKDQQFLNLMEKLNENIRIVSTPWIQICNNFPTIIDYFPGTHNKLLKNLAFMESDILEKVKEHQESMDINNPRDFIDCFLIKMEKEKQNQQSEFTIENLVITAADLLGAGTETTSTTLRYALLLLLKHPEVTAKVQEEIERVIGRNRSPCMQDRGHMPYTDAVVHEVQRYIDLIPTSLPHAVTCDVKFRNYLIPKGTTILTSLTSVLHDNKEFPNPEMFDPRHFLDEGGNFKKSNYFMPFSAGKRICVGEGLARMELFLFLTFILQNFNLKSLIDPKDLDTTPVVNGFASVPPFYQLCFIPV

SMILES: O=C(O)[C@H]1O[C@@H](Oc2cc3oc(-c4ccc(O)cc4)cc(=O)c3c(O)c2O)[C@H](O)[C@@H](O)[C@@H]1O [scutellarin, Scutellarin]
- IC50 (CYP1A2): > 100 µM
- IC50 (CYP2C19): 63.8 µM
- IC50 at 30 min (CYP2D4): > 100 µM
- inhibition towards the activity of UGT1A9 (UGT1A9): 36.1%
- inhibition towards the activity of UGT2B7 (UGT2B7): 73.8%
